# According to US12404232B2, “Compounds and compositions for intracellular delivery of therapeutic agents” (ModernaTX, Inc., priority 2015, dated 2025):
# How the values were obtained:
# mice = assay: Luc expression (bioluminescence, total flux) after intravenous administration to mice; assay type: in vivo; conditions: for 6 h Lipid/MC3 G.M. Luc Expression / AUC (h*p/s): i.v. administration; for 6 h Lipid/MC3 G.M. Luc Expression: geometric mean; for AUC (h*p/s): total Luc flux (Table 3C); for AUC (p/s*h): Luc total flux (Table 3D)
# Experimental: In order to monitor how effectively various nanoparticle compositions deliver therapeutic and/or prophylactics to targeted cells, different nanoparticle compositions including a particular therapeutic and/or prophylactic (for example, a modified or naturally occurring RNA such as an mRNA) are prepared and administered to rodent populations. Mice are intravenously, intramuscularly, intraarterially, or intratumorally administered a single dose including a nanoparticle composition with a formulation such as those provided in Example 3. In some instances, mice may be made to inhale doses. Dose sizes may range from 0.001 mg/kg to 10 mg/kg, where 10 mg/kg describes a dose including 10 mg of a therapeutic and/or prophylactic in a nanoparticle composition for each 1 kg of body mass of the mouse. A control composition including PBS may also be employed.
# Upon administration of nanoparticle compositions to mice, dose delivery profiles, dose responses, and toxicity of particular formulations and doses thereof can be measured by enzyme-linked immunosorbent assays (ELISA), bioluminescent imaging, or other methods. For nanoparticle compositions including mRNA, time courses of protein expression can also be evaluated. Samples collected from the rodents for evaluation may include blood, sera, and tissue (for example, muscle tissue from the site of an intramuscular injection and internal tissue); sample collection may involve sacrifice of the animals.
# The efficacy of the nanoparticle compositions presented in Table 1A was evaluated with a bioluminescence study. Formulations were administered intravenously to mice (n=6) at a dosage of 0.5 mg/kg (mpk) and bioluminescence measured at 3, 6, and 24 hour time points. The standard MC3 formulation and, in some instances, a control (e.g., a PBS control) were evaluated for comparison. […] In general, flux decreased as time progressed to less than 10% of the initial flux.
# The total flux (measured by area under the curve, AUC) induced by administration of a formulation including a given lipid relative to that induced by administration of a formulation including MC3 was also measured for several lipids.
# The tolerability and efficacy of nanoparticle compositions to non-human primates was also investigated using sample formulations including Compounds 18, 25, 26, and 48 and MC3 to determine if these compounds are differentiated in terms of protein expression. The formulations were prepared according to the standard MC3 formulation described above and included an hEPO mRNA. Table 30 includes details of the compositions tested, while Table 31 summarizes the relative expression of Luc and hEPO mRNA in mice and rats. Expression was measured 6 hours after administration.
# [1] = Particle size and polydispersity index of nanoparticle compositions (Zetasizer Nano ZS); assay type: physicochemical
# Excerpt: Nanoparticle compositions may be characterized by a variety of methods. For example, microscopy (e.g., transmission electron microscopy or scanning electron microscopy) may be used to examine the morphology and size distribution of a nanoparticle composition. Dynamic light scattering or potentiometry (e.g., potentiometric titrations) may be used to measure zeta potentials. Dynamic light scattering may also be utilized to determine particle sizes. Instruments such as the Zetasizer Nano ZS (Malvern Instruments Ltd, Malvern, Worcestershire, UK) may also be used to measure multiple characteristics of a nanoparticle composition, such as particle size, polydispersity index, and zeta potential.
# A Zetasizer Nano ZS (Malvern Instruments Ltd, Malvern, Worcestershire, UK) can be used to determine the particle size, the polydispersity index (PDI) and the zeta potential of the nanoparticle compositions in 1×PBS in determining particle size and 15 mM PBS in determining zeta potential.
# Initial studies were performed to compare the delivery efficiency of nanoparticle compositions including various compounds according to Formula (I), (IA), (II), (IIa), (IIb), (IIc), (IId) or (IIe). The cationic lipid MC3 is a current standard in the art. Accordingly, the standard MC3 formulation including about 50 mol % MC3, about 10 mol % DSPC, about 38.5 mol % cholesterol, and about 1.5 mol % PEG-DMG was used as a basis for this study. Nanoparticle compositions including DSPC as a phospholipid, cholesterol as a structural lipid, PEG-DMG as a PEG lipid, an RNA, and a compound according to Formula (I), (IA), (II), (IIa), (IIb), (IIc), (IId) or (IIe) selected from Compounds 1-159, 168-170, and 173-175 were prepared according to or via methods similar to those described in Examples 1 and 2. The ratios of the lipids were 50:10:38.5:1.5 mol % for the lipid according to Formula (I), (IA), (II), (IIa), (IIb), (IIc), (IId) or (IIe):DSPC:cholesterol:PEG-DMG. The RNA used was an mRNA encoding G5 luciferase (Luc) or G5 hEPO. Tables 1A-1B summarize the content and characteristics of the formulations. […]
SMILES,6 h Lipid/MC3 G.M. Luc Expression (mice),AUC (h*p/s) (mice),AUC (p/s*h) (mice),other results
"CCCCCCCCCOC(=O)CCCCCCCN(CCCCCCCC(=O)OC(CCCCCCCC)CCCCCCCC)CCN1CCOCC1 [Compound 103, Heptadecan-9-yl 8-((2-morpholinoethyl)(8-(nonyloxy)-8-oxooctyl)amino)octanoate]",0.171,2.4E+10 h*p/s,–,–
"CCCCCCCCCOC(=O)CCCCCCCN(CCO)CCCCCCCOP(=O)(OCCCCCCCC)OCCCCCCCC [Compound 131, Nonyl 8-((7-((bis(octyloxy)phosphoryl)oxy)heptyl)(2-hydroxyethyl)amino)octanoate]",1.27,9.29E+10 h*p/s,–,–
"CCCCCCCCOP(=O)(OCCCCCCCC)OCCCCCCCN(CCO)CCCCCCCC(=O)OC(C)CCCCCCCC (stereo not shown) [Compound 132, Decan-2-yl 8-((7-((bis(octyloxy)phosphoryl)oxy)heptyl)(2-hydroxyethyl)amino)octanoate]",0.112,1.75E+10 h*p/s,–,–
"CCCCCCCCC(CCCCCC)C(=O)OCCCCCCCCCN(CCO)CCCCCCCCCOC(=O)C(CCCCCC)CCCCCCCC (stereo not shown) [Compound 133, ((2-Hydroxyethyl)azanediyl)bis(nonane-9,1-diyl)bis(2-hexyldecanoate)]",4.18,3.62E+11 h*p/s,–,–
"CCCCCCCCCOC(=O)CCCCCCCN(CCO)CCCCCCCCCOC(=O)C(CCCCCC)CCCCCCCC (stereo not shown) [Compound 134, 9-((2-Hydroxyethyl)(8-(nonyloxy)-8-oxooctyl)amino)nonyl 2-hexyldecanoate]",3.27,3.43E+11 h*p/s,–,–
"CCCCCCCCC(C)OC(=O)CCCCCCCN(CCO)CCCCCCCOC(=O)C(CCCCCCCC)CCCCCCCC (stereo not shown) [Compound 135, 7-((8-(Decan-2-yloxy)-8-oxooctyl)(2-hydroxyethyl)amino)heptyl 2-octyldecanoate]",10.5,1.25E+12 h*p/s,–,–
"CCCCCCCCC(CCCCCCCC)OC(=O)CCCCCCCN(CCO)CCCCCCCC(=O)N(C)CCCCCCCC [Compound 145, Heptadecan-9-yl 8-((2-hydroxyethyl)(8-(methyl(octyl)amino)-8-oxooctyl)amino)octanoate]",0.979,8.1E+10 h*p/s,–,–
"CCCCCCCCC(CCCCCCCC)OC(=O)CCCCCCCN(CCO)CCCCCC(=O)N(C)CCCCCCCC [Compound 146, Heptadecan-9-yl 8-((2-hydroxyethyl)(6-(methyl(octyl)amino)-6-oxohexyl)amino)octanoate]",0.012,1.04E+09 h*p/s,–,–
"CCCCCCCCCOC(=O)CCCCCCCN(CCO)CCCCCCCCCC(=O)OC(CCCCCC)CCCCCC [Compound 147, Tridecan-7-yl 10-((2-hydroxyethyl)(8-(nonyloxy)-8-oxooctyl)amino)decanoate]",8.13,5.63E+11 h*p/s,–,–
"CCCCCCCCC(CCCCCCCC)OC(=O)CCCCCCCN(CCO)CCCCCCCC(=O)OCC(CCCCCCC)OC (stereo not shown) [Compound 148, Heptadecan-9-yl 8-((2-hydroxyethyl)(8-((2-methoxynonyl)oxy)-8-oxooctyl)amino)octanoate]",–,–,4.965E+011 p/s*h,–
"CCCCCCCCC(CCCCCCCC)OC(=O)CCCCCCCN(C)CCCCCCCCCC(=O)OCCCCCCC [Compound 149, Heptyl 10-((8-(heptadecan-9-yloxy)-8-oxooctyl)(methyl)amino)decanoate]",–,–,1.057E+011 p/s*h,–
"CCCCCCCCC(CCCCCCCC)OC(=O)CCCCCCCN(C)CCCCCCCCCCCC(=O)OCCCCC [Compound 150, Pentyl 12-((8-(heptadecan-9-yloxy)-8-oxooctyl)(methyl)amino)dodecanoate]",–,–,2.704E+011 p/s*h,–
"CCCCCCCCCC(=O)OCCCCCCCN(CCO)CCCCCCCOC(=O)C(CCCCCCCC)CCCCCCCC [Compound 151, 7-((7-(Decanoyloxy)heptyl)(2-hydroxyethyl)amino)heptyl 2-octyldecanoate]",–,–,7.010E+011 p/s*h,–
"CCCCCCCCCOC(=O)CCCCCCCN(CCO)CCCCCCC/C=C\C(CCCCCCCC)CCCCCCCC [Compound 152, Nonyl (Z)-8-((2-hydroxyethyl)(10-octyloctadec-8-en-1-yl)amino)octanoate]",–,–,2.855E+010 p/s*h,–
"CCCCCCCCCOC(=O)CCCCCCCN(CCO)CCCCCCCCCC(CCCCCCCC)CCCCCCCC [Compound 153, Nonyl 8-((2-hydroxyethyl)(10-octyloctadecyl)amino)octanoate]",–,–,2.697E+011 p/s*h,–
"CCCCCCCCCOC(=O)CCCCCCCN(CCCCCCCC(=O)OC(CCCCCCCC)CCCCCCCC)CCOCCO [Compound 154, Heptadecan-9-yl 8-((2-(2-hydroxyethoxy)ethyl)(8-(nonyloxy)-8-oxooctyl)amino)octanoate]",–,–,5.560E+010 p/s*h,–
"CCCCCCCCC(CCCCCCCC)OC(=O)CCCCCCCN(CCO)CCCCCCCC(=O)OC(C)(C)C [Compound 155, tert-Butyl 8-((8-(heptadecan-9-yloxy)-8-oxooctyl)(2-hydroxyethyl)amino)octanoate]",–,–,1.266E+011 p/s*h,–
"CCCCCCCCCOC(=O)CCCCCCCN(CCCCCCCC(=O)OC(CCCCCCCC)CCCCCCCC)C(CO)CO [Compound 156, Heptadecan-9-yl 8-((1,3-dihydroxypropan-2-yl)(8-(nonyloxy)-8-oxooctyl)amino)octanoate]",–,–,1.170E+011 p/s*h,"PDI ([1]; nanoparticle composition 50:10:38.5:1.5 mol % (Table 1A)): 0.072; Size (nm) ([1]; nanoparticle composition lipid:DSPC:cholesterol:PEG-DMG 50:10:38.5:1.5 mol %, mRNA encoding Luc or hEPO (Table 1A)): 74.3 nm"
"CCCCCCCCCOC(=O)CCCCCCCN(CCO)CCCCCCCC(=O)OC(C)(C)C [Compound 158, tert-Butyl 8-((2-hydroxyethyl)(8-(nonyloxy)-8-oxooctyl)amino)octanoate]",–,–,1.211E+007 p/s*h,–
"CCCCCCCCCOC(=O)CCCCCCCN(CCO)CCN(CCO)CCCCCCCC(=O)OC(CCCCCCCC)CCCCCCCC [Compound 159, Heptadecan-9-yl 8-((2-hydroxyethyl)(2-((2-hydroxyethyl)(8-(nonyloxy)-8-oxooctyl)amino)ethyl)amino)octanoate]",–,–,1.355E+008 p/s*h,–
